{"source": "patent US20160214963A1", "about": "“INHIBITORS OF BRUTON'S TYROSINE KINASE” (Beyond Oncology Pharmaceutical LLC, priority 2013, published 2016)", "key": {"NEK11": {"molecular_target": "T1, NEK11 (Homo sapiens, UniProt Q8NG66)", "T1 construct": "literature Ambit", "T1 sequence (Q8NG66 1-645)": "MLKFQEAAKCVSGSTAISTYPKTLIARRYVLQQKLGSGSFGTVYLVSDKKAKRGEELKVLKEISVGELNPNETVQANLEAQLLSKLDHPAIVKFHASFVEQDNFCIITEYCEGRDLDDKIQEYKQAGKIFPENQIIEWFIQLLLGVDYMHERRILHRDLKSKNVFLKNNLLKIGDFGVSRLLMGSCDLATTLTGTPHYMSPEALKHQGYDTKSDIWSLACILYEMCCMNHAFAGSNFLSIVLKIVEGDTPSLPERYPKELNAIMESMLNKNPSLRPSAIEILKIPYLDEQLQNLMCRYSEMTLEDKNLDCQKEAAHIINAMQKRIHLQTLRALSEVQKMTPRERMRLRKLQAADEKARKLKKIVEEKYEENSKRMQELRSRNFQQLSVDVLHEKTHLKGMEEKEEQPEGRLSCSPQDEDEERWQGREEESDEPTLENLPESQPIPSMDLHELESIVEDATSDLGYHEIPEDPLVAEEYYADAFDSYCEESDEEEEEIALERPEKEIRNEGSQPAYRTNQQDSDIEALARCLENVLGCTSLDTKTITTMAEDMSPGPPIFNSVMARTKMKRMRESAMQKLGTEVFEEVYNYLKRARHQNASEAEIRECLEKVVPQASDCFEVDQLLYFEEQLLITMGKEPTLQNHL", "conditions": "1 μM; cited from earlier work"}, "CASK": {"molecular_target": "T2, CASK (Homo sapiens, UniProt O14936)", "T2 construct": "literature Ambit", "T2 sequence (O14936 1-926)": "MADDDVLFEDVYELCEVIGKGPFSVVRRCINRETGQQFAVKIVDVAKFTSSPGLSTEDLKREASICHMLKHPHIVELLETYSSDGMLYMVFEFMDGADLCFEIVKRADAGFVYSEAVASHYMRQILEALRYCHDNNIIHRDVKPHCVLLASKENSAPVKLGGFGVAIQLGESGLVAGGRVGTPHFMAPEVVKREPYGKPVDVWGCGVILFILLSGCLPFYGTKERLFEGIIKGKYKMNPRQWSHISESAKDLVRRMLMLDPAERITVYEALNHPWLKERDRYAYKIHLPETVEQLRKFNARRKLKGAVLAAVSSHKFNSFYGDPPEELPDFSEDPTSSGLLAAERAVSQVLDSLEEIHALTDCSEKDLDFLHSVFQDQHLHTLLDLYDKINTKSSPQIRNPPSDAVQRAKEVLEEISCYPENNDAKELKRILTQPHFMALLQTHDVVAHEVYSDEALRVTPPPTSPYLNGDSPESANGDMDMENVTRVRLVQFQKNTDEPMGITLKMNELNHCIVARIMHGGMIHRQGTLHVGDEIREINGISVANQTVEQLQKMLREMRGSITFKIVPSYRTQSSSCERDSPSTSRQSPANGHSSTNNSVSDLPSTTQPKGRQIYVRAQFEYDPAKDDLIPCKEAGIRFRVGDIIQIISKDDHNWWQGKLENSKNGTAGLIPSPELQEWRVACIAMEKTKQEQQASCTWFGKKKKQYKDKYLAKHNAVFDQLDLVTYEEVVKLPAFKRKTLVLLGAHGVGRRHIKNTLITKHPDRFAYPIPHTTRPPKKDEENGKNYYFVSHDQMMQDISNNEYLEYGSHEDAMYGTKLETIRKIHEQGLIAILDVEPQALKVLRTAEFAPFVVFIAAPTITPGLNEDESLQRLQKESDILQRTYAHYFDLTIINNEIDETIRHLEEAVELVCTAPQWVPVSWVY", "conditions": "1 μM; cited from earlier work"}, "BMX [1]": {"molecular_target": "T3, BMX (Homo sapiens, UniProt P51813)", "T3 sequence (P51813 1-675)": "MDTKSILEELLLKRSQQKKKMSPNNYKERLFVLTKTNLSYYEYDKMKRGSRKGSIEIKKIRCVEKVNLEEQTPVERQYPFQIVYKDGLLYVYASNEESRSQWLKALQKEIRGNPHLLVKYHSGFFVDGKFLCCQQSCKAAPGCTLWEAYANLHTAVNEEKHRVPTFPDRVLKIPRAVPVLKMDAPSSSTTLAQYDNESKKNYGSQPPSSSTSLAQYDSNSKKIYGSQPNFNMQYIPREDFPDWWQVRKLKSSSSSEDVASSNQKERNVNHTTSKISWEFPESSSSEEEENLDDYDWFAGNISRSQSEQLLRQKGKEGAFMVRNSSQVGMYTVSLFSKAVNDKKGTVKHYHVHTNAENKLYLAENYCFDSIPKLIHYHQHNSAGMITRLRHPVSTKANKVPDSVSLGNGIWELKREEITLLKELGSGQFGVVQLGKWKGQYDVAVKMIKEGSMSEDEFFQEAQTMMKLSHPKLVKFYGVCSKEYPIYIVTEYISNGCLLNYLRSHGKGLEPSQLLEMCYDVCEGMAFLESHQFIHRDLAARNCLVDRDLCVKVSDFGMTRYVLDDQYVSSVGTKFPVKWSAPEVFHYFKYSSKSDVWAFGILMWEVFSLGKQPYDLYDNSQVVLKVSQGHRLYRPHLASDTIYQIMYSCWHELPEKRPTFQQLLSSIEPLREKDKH", "conditions": "at Km for ATP; cited from earlier work"}, "PDGFRB": {"molecular_target": "T4, PDGFRB (Homo sapiens, UniProt P09619)", "T4 construct": "literature Ambit", "T4 sequence (P09619 33-1106)": "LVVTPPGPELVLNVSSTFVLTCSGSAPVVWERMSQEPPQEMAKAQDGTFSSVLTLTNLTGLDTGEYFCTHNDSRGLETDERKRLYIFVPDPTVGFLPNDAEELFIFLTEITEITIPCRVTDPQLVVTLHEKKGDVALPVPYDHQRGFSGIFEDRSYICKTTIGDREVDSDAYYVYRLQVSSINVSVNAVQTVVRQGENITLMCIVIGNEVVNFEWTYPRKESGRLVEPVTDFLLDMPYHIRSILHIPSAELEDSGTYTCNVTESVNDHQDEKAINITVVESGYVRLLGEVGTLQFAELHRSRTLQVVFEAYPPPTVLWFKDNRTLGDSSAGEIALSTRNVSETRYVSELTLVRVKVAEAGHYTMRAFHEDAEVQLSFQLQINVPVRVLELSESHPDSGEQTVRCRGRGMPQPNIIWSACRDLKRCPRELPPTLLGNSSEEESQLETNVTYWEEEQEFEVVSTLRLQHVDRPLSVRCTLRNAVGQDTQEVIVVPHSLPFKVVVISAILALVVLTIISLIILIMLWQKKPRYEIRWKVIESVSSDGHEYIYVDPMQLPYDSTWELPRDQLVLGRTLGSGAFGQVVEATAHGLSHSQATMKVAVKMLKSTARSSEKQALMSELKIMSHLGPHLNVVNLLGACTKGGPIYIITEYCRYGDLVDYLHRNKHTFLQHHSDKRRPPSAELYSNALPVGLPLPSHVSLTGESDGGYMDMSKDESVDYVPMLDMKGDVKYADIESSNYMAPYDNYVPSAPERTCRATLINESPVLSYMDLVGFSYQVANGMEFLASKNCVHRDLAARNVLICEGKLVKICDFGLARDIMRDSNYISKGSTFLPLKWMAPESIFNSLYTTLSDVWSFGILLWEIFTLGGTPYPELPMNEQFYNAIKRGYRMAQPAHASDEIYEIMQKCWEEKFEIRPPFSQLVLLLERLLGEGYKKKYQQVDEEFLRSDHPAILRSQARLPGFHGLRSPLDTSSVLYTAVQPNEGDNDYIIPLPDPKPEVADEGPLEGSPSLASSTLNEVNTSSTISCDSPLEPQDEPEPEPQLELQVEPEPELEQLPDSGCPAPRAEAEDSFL", "conditions": "1 μM; cited from earlier work"}, "MINK": {"molecular_target": "T5, MINK (Homo sapiens, UniProt Q8N4C8)", "T5 construct": "literature Ambit", "T5 sequence (Q8N4C8 whole entry)": "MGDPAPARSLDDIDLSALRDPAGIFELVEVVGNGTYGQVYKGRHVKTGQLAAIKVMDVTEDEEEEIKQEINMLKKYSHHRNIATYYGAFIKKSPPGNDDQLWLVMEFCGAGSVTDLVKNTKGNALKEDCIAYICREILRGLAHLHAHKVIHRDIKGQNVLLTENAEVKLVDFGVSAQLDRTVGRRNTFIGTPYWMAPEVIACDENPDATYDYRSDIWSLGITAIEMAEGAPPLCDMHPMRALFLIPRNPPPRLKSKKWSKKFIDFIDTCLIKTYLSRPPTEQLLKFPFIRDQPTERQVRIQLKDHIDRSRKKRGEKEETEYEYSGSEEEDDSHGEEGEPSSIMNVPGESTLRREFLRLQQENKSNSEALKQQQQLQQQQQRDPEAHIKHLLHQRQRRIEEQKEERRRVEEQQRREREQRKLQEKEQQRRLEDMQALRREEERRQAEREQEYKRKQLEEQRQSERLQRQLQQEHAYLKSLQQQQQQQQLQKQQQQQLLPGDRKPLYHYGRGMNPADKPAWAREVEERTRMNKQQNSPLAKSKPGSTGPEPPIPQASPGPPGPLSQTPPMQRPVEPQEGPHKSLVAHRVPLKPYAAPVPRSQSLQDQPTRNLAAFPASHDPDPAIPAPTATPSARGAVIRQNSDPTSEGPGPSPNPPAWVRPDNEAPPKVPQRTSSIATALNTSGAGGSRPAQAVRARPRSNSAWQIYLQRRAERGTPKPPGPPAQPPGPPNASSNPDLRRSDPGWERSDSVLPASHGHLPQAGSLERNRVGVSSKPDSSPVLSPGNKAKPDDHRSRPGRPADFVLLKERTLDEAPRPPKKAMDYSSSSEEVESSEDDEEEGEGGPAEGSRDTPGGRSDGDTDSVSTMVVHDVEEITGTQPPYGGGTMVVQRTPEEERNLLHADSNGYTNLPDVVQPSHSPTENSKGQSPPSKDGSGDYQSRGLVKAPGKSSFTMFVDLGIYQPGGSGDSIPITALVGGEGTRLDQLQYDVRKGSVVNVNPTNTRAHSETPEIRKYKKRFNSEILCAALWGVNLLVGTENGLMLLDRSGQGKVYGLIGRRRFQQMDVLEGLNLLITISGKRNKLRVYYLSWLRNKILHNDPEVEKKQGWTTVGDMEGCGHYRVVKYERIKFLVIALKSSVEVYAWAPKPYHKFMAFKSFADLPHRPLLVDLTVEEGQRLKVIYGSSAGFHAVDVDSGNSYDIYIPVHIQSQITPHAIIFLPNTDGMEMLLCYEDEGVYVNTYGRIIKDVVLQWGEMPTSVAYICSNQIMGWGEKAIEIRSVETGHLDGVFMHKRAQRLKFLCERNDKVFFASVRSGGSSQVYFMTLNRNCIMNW", "conditions": "cited from earlier work"}, "[2]": {"system": "systemic lupus erythematosus (SLE)", "conditions": "mouse model of SLE; cited from earlier work"}, "arthritis [3]": {"system": "arthritis", "conditions": "mice; cited from earlier work"}, "arthritis [4]": {"system": "arthritis", "conditions": "cited from earlier work"}, "[5]": {"system": "hypersensitive immune responses", "conditions": "rPCA, 30 mg/kg; cited from earlier work"}, "CD69 expression": {"system": "CD69 expression", "conditions": "oral 3, 30, 100 mg/kg, cited from earlier work"}, "[6]": {"system": "CD69 expression in B cells", "conditions": "human whole blood; read-out: IC50 IgM-stimulated CD69 expression in B cells; cited from earlier work"}, "arthritis [7]": {"system": "arthritis", "conditions": "100 mg/kg oral, preventive mode; cited from earlier work"}, "[8]": {"system": "adjuvant-induced arthritis", "conditions": "rat AIA, combination; cited from earlier work"}, "[9]": {"system": "histamine release in mast cells", "conditions": "read-out: IC50 IgE-Fce cross-linking induced histamine release; cited from earlier work"}, "[10]": {"system": "TNFα release in monocytes", "conditions": "read-out: IC50 IgG-FcγR mediated TNFα release; cited from earlier work"}, "BMX [11]": {"molecular_target": "T3, BMX", "experiment": "KINOMEscan competition binding assay, Kd", "design": "DNA tag for qPCR (T7 phage display or DNA tag added after HEK-293 expression); host or cells: E. coli BL21-derived host (T7 phage) or HEK-293", "text": "The Hill Slope was set to −1."}, "BTK": {"molecular_target": "BTK (Homo sapiens, UniProt Q06187)", "sequence (Q06187 whole entry)": "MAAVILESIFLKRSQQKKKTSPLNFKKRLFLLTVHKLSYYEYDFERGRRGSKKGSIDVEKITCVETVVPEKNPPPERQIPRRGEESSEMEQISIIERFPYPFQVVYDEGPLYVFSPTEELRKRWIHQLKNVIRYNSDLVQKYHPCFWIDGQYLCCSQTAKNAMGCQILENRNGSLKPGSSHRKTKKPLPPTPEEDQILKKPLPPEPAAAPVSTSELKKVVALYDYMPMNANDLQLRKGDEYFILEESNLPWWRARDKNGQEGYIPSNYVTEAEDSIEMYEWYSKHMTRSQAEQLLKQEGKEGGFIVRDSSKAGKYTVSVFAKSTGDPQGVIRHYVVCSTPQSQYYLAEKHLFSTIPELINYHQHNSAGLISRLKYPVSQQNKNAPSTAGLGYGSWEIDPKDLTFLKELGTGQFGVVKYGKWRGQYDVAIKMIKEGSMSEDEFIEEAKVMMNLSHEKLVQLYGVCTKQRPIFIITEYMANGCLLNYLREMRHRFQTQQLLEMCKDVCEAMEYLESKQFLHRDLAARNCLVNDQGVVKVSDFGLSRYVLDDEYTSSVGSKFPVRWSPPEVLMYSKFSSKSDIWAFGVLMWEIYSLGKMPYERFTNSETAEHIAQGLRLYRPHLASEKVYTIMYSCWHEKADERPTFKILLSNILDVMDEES", "experiment": "KINOMEscan competition binding assay, Kd", "method": "(§1) The assay is performed by combining three components: DNA-tagged kinase; immobilized ligand; and a test compound. The ability of the test compound to compete with the immobilized ligand is measured via quantitative PCR of the DNA tag. The kinase-tagged T7 phage strains were prepared in an E. coli host derived from the BL21 strain. E. coli were grown to log-phase and infected with T7 phage and incubated with shaking at 32° C. until lysis. The lysates were centrifuged and filtered to remove cell debris. The remaining kinases were produced in HEK-293 cells and subsequently tagged with DNA for qPCR detection. […] The liganded beads were blocked with excess biotin and washed with blocking buffer (SeaBlock (Pierce), 1% BSA, 0.05% Tween 20, 1 mM DTT) to remove unbound ligand and to reduce non-specific binding. […] All reactions were performed in polystyrene 96-well plates in a final volume of 0.135 ml. […] The kinase concentration in the eluates was measured by qPCR. An 11-point 3-fold serial dilution of each test compound was prepared in 100% DMSO at 100× final test concentration and subsequently diluted to 1× in the assay (final DMSO concentration=1%). […] Binding constants (Kds) were calculated with a standard dose-response curve using the Hill equation: Response=Background+(Signal−Background)/[1+(Kd^Hill Slope/Dose^Hill Slope)]. The Hill Slope was set to −1. […]"}, "JAK3": {"molecular_target": "JAK3 (Homo sapiens, UniProt P52333)", "sequence (P52333 814-1124 limits assumed)": "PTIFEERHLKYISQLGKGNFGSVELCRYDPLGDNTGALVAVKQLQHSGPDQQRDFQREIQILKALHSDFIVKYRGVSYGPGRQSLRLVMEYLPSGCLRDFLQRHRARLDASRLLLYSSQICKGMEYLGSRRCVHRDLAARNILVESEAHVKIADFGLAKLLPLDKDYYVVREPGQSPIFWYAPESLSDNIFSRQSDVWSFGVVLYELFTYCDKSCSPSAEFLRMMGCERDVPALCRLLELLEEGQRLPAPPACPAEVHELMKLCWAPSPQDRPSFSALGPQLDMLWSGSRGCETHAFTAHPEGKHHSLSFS", "experiment": "KINOMEscan competition binding assay, Kd", "method": "as §1"}, "TEC": {"molecular_target": "T6, TEC (Homo sapiens, UniProt P42680)", "T6 sequence (P42680 1-631)": "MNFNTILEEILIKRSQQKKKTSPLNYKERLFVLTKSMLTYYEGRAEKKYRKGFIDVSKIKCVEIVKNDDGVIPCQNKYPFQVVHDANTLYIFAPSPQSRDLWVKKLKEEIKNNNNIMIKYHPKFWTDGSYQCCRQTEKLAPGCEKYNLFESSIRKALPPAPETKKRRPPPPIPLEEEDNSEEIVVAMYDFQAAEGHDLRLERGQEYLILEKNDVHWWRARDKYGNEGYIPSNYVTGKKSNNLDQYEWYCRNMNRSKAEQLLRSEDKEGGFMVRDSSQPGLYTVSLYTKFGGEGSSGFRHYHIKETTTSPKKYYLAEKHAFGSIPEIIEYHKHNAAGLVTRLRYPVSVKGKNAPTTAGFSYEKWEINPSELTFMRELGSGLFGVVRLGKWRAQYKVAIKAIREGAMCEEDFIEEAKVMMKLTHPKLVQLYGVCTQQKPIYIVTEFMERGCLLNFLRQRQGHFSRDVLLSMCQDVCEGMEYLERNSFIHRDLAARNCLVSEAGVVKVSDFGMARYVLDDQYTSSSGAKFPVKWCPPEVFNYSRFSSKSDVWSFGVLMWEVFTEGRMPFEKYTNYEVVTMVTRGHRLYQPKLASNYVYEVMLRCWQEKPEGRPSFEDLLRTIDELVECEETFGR", "experiment": "KINOMEscan competition binding assay, Kd", "method": "as §1"}}, "note": "Like-named read-outs stand apart in the source and are kept apart here.", "data": [{"smiles": "Cc1c(NC(=O)c2ccc(C(C)(C)C)cc2)cccc1-c1cn(C)c(=O)c(Nc2ccc(C(=O)N3CCOCC3)cc2)n1", "note": "[CGI-1746]", "values": [{"measurement": "displacement of control ligand, NEK11", "setting": "NEK11", "value": 59, "unit": "%"}, {"measurement": "displacement of control ligand, CASK", "setting": "CASK", "value": 69, "unit": "%"}, {"measurement": "IC50", "setting": "BMX [1]", "value": 1.87, "unit": "µM"}, {"measurement": "displacement of control ligand, PDGFRB", "setting": "PDGFRB", "value": 59, "unit": "%"}, {"measurement": "displacement of control ligand, MINK", "setting": "MINK; 1 μM", "value": 77, "unit": "%"}, {"measurement": "Kd", "setting": "MINK; read-out: Kd MINK1", "value": 40, "unit": "µM"}]}, {"smiles": "C=CC(=O)N1CCCC(n2nc(-c3ccc(Oc4ccccc4)cc3)c3c(N)ncnc32)C1", "note": "(stereo not drawn) [PCI-32765]", "values": [{"measurement": "auto-antibody production and development of kidney disease", "setting": "[2]", "value": "inhibited"}, {"measurement": "course of arthritis", "setting": "arthritis [3]", "value": "can reverse"}, {"measurement": "level of circulating autoantibodies", "setting": "arthritis [3]", "value": "reduces"}]}, {"smiles": "CN1CCN(c2ccc(Nc3cc(-c4cccc(-n5ccc6cc(C7CC7)cc(F)c6c5=O)c4CO)cn(C)c3=O)nc2)CC1", "note": "[RN-486]", "values": [{"measurement": "disease progression", "setting": "arthritis [4]; mCIA and mCAIA models", "value": "dose-dependently inhibits"}, {"measurement": "progression of disease", "setting": "arthritis [4]; therapeutic mode, 30 mg/kg", "value": "did not show progression of disease"}, {"measurement": "effect in blocking hypersensitive immune responses", "setting": "[5]", "value": 91, "unit": "%"}, {"measurement": "inhibition of ex vivo anti-IgD stimulated CD69 expression", "setting": "CD69 expression; 3 and 6 h postdose, all doses", "value": "completely inhibited"}, {"measurement": "inhibition of ex vivo anti-IgD stimulated CD69 expression", "setting": "CD69 expression; 24 h postdose", "value": "50-80%"}, {"measurement": "IC50", "setting": "[6]", "value": 0.017, "unit": "µM"}, {"measurement": "inhibition of arthritis as measured by clinical scores", "setting": "arthritis [7]", "value": "complete inhibition"}, {"measurement": "effect with low dose methotrexate", "setting": "[8]", "value": "additive effects"}, {"measurement": "IC50", "setting": "[9]", "value": 0.0292, "unit": "µM"}, {"measurement": "IC50", "setting": "[10]", "value": 0.004, "unit": "µM"}]}, {"smiles": "C=CC(=O)Nc1cccc(Nc2nc(-c3cccc(-n4ncc5cc(C(C)(C)C)cc(F)c5c4=O)c3CO)cn(C)c2=O)c1", "note": "[CY-130526]", "values": [{"measurement": "Kd", "setting": "BMX [11]", "value": 1.3, "unit": "µM"}, {"measurement": "Kd", "setting": "BTK", "value": 0.00086, "unit": "µM"}, {"measurement": "selectivity for BTK over TEC, BMX", "setting": "BTK; kinases inhibited the most next to BTK", "value": "> 1000", "unit": "fold"}, {"measurement": "Kd", "setting": "JAK3", "value": 14, "unit": "µM"}, {"measurement": "Kd", "setting": "TEC", "value": 2.4, "unit": "µM"}]}]}
